How the values were obtained:
[1] = Stability test in buffer (pH 7.4); assay type: physicochemical; settings: phosphate buffer/acetonitrile 7:3, 100 mM potassium phosphate buffer (pH 7.4) and acetonitrile 7:3 (v/v), LC/MS; for remaining at 10 min: 10 minutes at 37°C, read-out: Buf. remaining rate (%/10min); for remaining at 1 h: 60 minutes at 37°C, read-out: Buf. remaining rate (%/60min)
Experimental: In the tables, Buf. remaining rate was determined by stability test in buffer (pH 7.4) as described below. A sample dissolved in DMSO was mixed with a mixed solution of 100 mM potassium phosphate buffer and acetonitrile in the ratio of 7:3 (v/v). The mixture was incubated at 37°C for 0, 10, and 60 minutes, and acetonitrile containing formic acid (final concentration: 0.1%) was added thereto. The solution was centrifuged, and the concentration of the sample (unchanged form) in the supernatant was determined by high performance liquid chromatography/mass spectrometry (LC/MS). Based on the data obtained, Buf. remaining rate (%) was calculated according to the following equation. Buf.remaining rate(%) = amount of sample 0,10, or 60 minutes after incubation/amount of sample at zero time after incubation × 100 [formula]

[2] = Metabolic stability test in plasma; assay type: in vitro ADME, human; settings: LC/MS; for remaining at 10 min: unchanged form after 10 minutes at 37°C in human plasma, read-out: Remaining rate in human plasma (%/10min); for remaining at 1 h: unchanged form after 60 minutes at 37°C in human plasma, read-out: Remaining rate in human plasma (%/60min)
Experimental: A sample dissolved in DMSO was added to plasma of human or animal species (mouse and hamster). The solutions were incubated at 37°C for 0, 10 and 60 minutes, and acetonitrile containing formic acid (final concentration: 0.1%) was added thereto. The solutions were centrifuged, and the concentration of the sample (unchanged form) in the supernatant was determined by high performance liquid chromatography/mass spectrometry (LC/MS). Based on the data obtained, the remaining rate (%) was calculated according to the following equation. Remaining rate(%) = amount of sample 0,10, or 60 minutes after incubation/amount of sample at zero time after incubation × 100 [formula]
(§1) With respect to the compounds obtained in Working Examples according to the present invention (Compounds 1-1 to 1-115, 2-1, 3-1, 3-2, and 4-1 to 4-4), the results of the remaining rate in human liver S9 and plasma are shown in Tables 28 to 32.

[3] = Metabolic stability test in liver S9; assay type: in vitro ADME; settings: pH 7.4, human liver S9 2 mg protein/mL, LC/MS; for remaining at 10 min: unchanged form after 10 minutes at 37°C, read-out: Remaining rate in human liver S9 (%/10min); for remaining at 1 h: unchanged form after 60 minutes at 37°C, read-out: Remaining rate in human liver S9 (%/60min)
Experimental: Human liver S9 (final concentration: 2 mg protein/mL), was suspended in 100 mM potassium phosphate buffer (pH 7.4, containing β-nicotinamide adenine dinucleotide phosphate: 1.3 mM, D-glucose-6- phosphate: 3.3 mM, magnesium chloride: 3.3 mM, glucose-6-phosphate dehydrogenase:0.4 U/mL). The suspension was mixed with a solution of a sample dissolved in DMSO. The solution was incubated at 37°C for 0, 10 and 60 minutes, and an acetonitrile containing formic acid (final concentration: 0.1%) was added thereto. The solutions were centrifuged, and the concentration of the sample (unchanged form) in the supernatant was determined by high performance liquid chromatography/mass spectrometry (LC/MS). Based on the data obtained, remaining rate (%) was calculated according to the following equation. Remaining rate(%) = amount of sample 0,10, or 60 minutes after [formula] incubation/amount of sample at zero time after incubation × 100 [formula]
as §1

| remaining at 10 min [1] [%] | remaining at 1 h [1] [%] | remaining at 10 min [2] [%] | remaining at 1 h [2] [%] | remaining at 10 min [3] [%] | remaining at 1 h [3] [%] | Compound |
| --- | --- | --- | --- | --- | --- | --- |
| 98 | 103 | 3 | 0 | 2 | 0 | CCOC(=O)c1ccc(OC(=O)CCCc2ccc(NC(=O)c3ccccc3-c3ccc(C(F)(F)F)cc3)c(C(=O)N3CCCC3)c2)c(F)c1 [Compound 1-16, 3-fluoro-4-(4-{3-(pyrrolidine-1-carbonyl)-4-[(4'-trifluoromethylbiphenyl-2-carbonyl)amino]phenyl)butyryloxy)benzoic acid ethyl ester] |
| 100 | 105 | 0 | 0 | 0 | 0 | COC(=O)c1ccc(OC(=O)CCCc2ccc(NC(=O)c3ccccc3-c3ccc(C(F)(F)F)cc3)c(C(=O)N(C)C)c2)cc1OC [Compound 1-17, 4-(4-{3-dimethylcarbamoyl-4-[(4'-trifluoromethylbiphenyl-2-carbonyl)amino]phenyl}butyryloxy) -2-methoxybenzoic acid methyl ester] |
| 101 | 98 | 0 | 0 | 0 | 0 | COC(=O)c1ccc(OC(=O)CCCc2ccc(NC(=O)c3ccccc3-c3ccc(C(F)(F)F)cc3)c(C(=O)N(C)C)c2)cc1Cl [Compound 1-18, 2-chloro-4-(4-{3-dimethylcarbamoyl-4-[(4'-trifluoromethylbiphenyl-2-carbonyl)amino]phenyl}butyryloxy)benzoic acid methyl ester] |
| 107 | 100 | 0 | 0 | 0 | 0 | COC(=O)c1ccc(OC(=O)CCCc2ccc(NC(=O)c3ccccc3-c3ccc(C(F)(F)F)cn3)c(C(=O)N(C)C)c2)cc1 [Compound 1-19, 4-(4-{3-dimethylcarbamoyl-4-[2-(5-trifluoromethylpyridin-2-yl)benzoylamino]phenyl}butyryloxy)benzoic acid methyl ester] |
| 102 | 99 | 0 | 0 | 0 | 0 | COC(=O)c1ccc(OC(=O)CCCc2ccc(NC(=O)c3ccccc3-c3ccc(C(F)(F)F)cc3)c(C(=O)N(C)C)c2)c(C(F)(F)F)c1 [Compound 1-20, 4-(4-{3-dimethylcarbamoyl-4-[(4'-trifluoromethylbiphenyl-2-carbonyl)amino]phenyl}butyryloxy)-3-trifluoromethylbenzoic acid methyl ester] |
| 104 | 103 | 0 | 0 | 0 | 0 | COC(=O)c1ccc(OC(=O)CCCc2ccc(NC(=O)c3ccccc3-c3ccc(C(F)(F)F)cc3)c(C(=O)N(C)C)c2)cc1C(F)(F)F [Compound 1-21, 4-(4-{3-dimethylcarbamoyl-4-[(4'-trifluoromethylbiphenyl-2-carbonyl)amino]phenyl}butyryloxy)-2-trifluoromethylbenzoic acid methyl ester] |
| 96 | 98 | 8 | 0 | 0 | 0 | CC(=O)c1ccc(OC(=O)CCCc2ccc(NC(=O)c3ccccc3-c3ccc(C(F)(F)F)cc3)c(C(=O)N(C)C)c2)cc1 [Compound 1-22, 4-(3-dimethylcarbamoyl-4-[(4'-trifluoromethylbiphenyl-2-carbonyl)amino]phenyl}butyric acid 4-acetylphenyl ester] |

— patent EP1803452A1, “ESTER DERIVATIVE AND PHARMACEUTICAL USE THEREOF” (Japan Tobacco, Inc., priority 2004, dated 2006)
